Several values for one entry are separate records, joined by “and”; a condition that tells them apart may be missing. Equal values may be shown once. Entries after “also recorded” stand apart in the source; their conditions may differ. Read-outs that look alike come from different tables or passages of the source.
What was measured:
[1] = tested on: male mice (ICR); test: Muscle relaxation: endurance time on rotarod rotating at accelerated speed; type: in vivo; conditions: Mus musculus, ip; intraperitoneal, at time of maximum effect; 50% of activity vs vehicle only; read-out: MR test ED50, I = Acc. Rotarod
Procedure: (§1) For testing, male mice (ICR) were purchased from ORIENT BIO INC. (Korea), divided into several groups with 6 mice in each group, and were adapted for 4-5 days. The mice having the weight ranging from 19 g to 26 g were employed for the test. The pharmacological effect of the test compounds on muscle relaxation was evaluated by Rotarod test, grip strength test, and muscular force (wire hang) test. All mice were adapted to the test environment at one hour before starting the tests. The pharmacological effects of all the test compounds were evaluated by administration through peritoneal cavity of the mice (10 ul/g, bw).
At 24 hours before testing, the mice to be tested were preliminarily trained for 5 minutes on a rod rotating at the rate of 6 revolutions per a minute. The pharmacological effect on muscle relaxation of the test compounds were evaluated by observing the mice on a rod for 5 minutes, where the rod was accelerated from 4 to 40 revolutions per a minute during the test time. The endurance time that each mouse endures on the acceleratedly rotated rod without falling off from the rod was recorded. As test time for evaluation, a maximum of 5 minutes was applied. […] This experimentation was conducted according to the method described in the reference, ‘Monville et al. (2006) Comparison of incremental and accelerating protocol of the rotarod test for the assessment of motor deficits in the 6-OHDA model. J. Neurosci. Meth. 158: 219-223’.
(§2) The results of muscle relaxation activity of the phenyl carbamate compounds measured in above Experimental Examples 11.2 to 11.5 are shown in following Table 5.

[2] = tested on: male mice (ICR); test: Muscle relaxation: residence time on rotarod rotating at fixed speed (15 r.p.m.); type: in vivo; conditions: Mus musculus, ip; intraperitoneal, at time of maximum effect; 50% of activity vs vehicle only; read-out: MR test ED50, II = Fixed 15 r.p.m. Rotarod
[3] = tested on: male mice (ICR); test: Muscle relaxation: grip strength; type: in vivo; conditions: Mus musculus, ip; intraperitoneal, at time of maximum effect; 50% of activity vs vehicle only; read-out: MR test ED50, III = Grip strength
Procedure: as §1
A grip strength test using the test animals' forelimbs was performed using an instrument equipped with triangle ring and designed so as to easily grip with the forelimbs of experimental animals, manufactured from Ugo Basile Inc. (Ugo Basile, Model47106, Italy). The test was conducted before and after administration of the compounds to evaluate the effects thereof. […] The mouse was made to grip the rod with its forelimbs, and its tail was pulled, where the force at which the mouse detached from the rod was recorded. The instrument indicated the force in grams. All of the mice were given […] for test, and the 3 highest values among the test opportunities were selected and the mean value was used as the test result. This experimentation was conducted according to the method described in the reference, ‘Nevins et al. (1993) Quantitative grip strength assessment as a means of evaluating muscle relaxation in mice. Psychopharmacol. 110: 92-96’.
as §2

[4] = tested on: male mice (ICR); test: Muscle relaxation: wire hang; type: in vivo; conditions: Mus musculus; intraperitoneal, at time of maximum effect; 50% of activity vs vehicle only; read-out: MR test ED50, IV = Wire hang
Procedure: as §1
This experimentation was conducted using a metal wire of 30 cm in length, which was suspended between two pillars at a height of about 40 cm from the bottom covered with a soft pad. […] Each mouse was made to grip the wire using two forelimbs, and the elapse time before the mouse fell off from the wire to the pad on the bottom was recorded in seconds. Each mouse was given 5 opportunities for this test at an interval of 2 minutes period. The highest 3 records among the test opportunities were selected and the mean value was used as the test result. This experimentation was conducted according to the method described in the reference, ‘Jacqueline N. Crawley (1999) Behavioral phenotyping of transgenic and knockout mice: experimental design and evaluation of general health, sensory functions, motor abilities, and specific behavioral tests. Brain Res. 835: 18-26’.
as §2

[5] = tested on: male ICR mice; test: MES (Maximal Electroshock Seizure) test in mice
[6] = tested on: male SD rats; test: MES (Maximal Electroshock Seizure) test in rats; conditions: for ED50: Rattus norvegicus, po, read-out: Duration of MES test ED50
[7] = tested on: MOG EAE rat; test: Anti-multiple sclerosis activity by MOG EAE rat

C[C@H](OC(N)=O)[C@@H](O)c1ccccc1Cl [Compound 1, 1-(2-chlorophenyl)-(S)-1-hydroxypropyl-(S)-2-carbamate]
ED50 [1]: 39.7 mg/kg
ED50 [2]: 23.3 mg/kg
ED50 [3]: 40.9 mg/kg
ED50 [4]: 13.3 mg/kg
ED50 ([5]; Mus musculus, po, 0.25 h, read-out: Duration of MES test ED50): 21.2 mg/kg
ED50 ([5]; Mus musculus, po, 0.5 h, read-out: Duration of MES test ED50): 22.5 mg/kg
ED50 ([5]; Mus musculus, po, 1 h, read-out: Duration of MES test ED50): 13.3 mg/kg
ED50 ([5]; Mus musculus, po, 2 h, read-out: Duration of MES test ED50): 13 mg/kg
ED50 ([5]; Mus musculus, po, 3 h, read-out: Duration of MES test ED50): 14.7 mg/kg
ED50 ([5]; Mus musculus, po, 4 h, read-out: Duration of MES test ED50): 18.7 mg/kg
ED50 ([5]; Mus musculus, po, 6 h, read-out: Duration of MES test ED50): 30 mg/kg
ED50 ([5]; Mus musculus, po, 8 h, read-out: Duration of MES test ED50): 49.4 mg/kg
ED50 ([5]; Mus musculus, po, 12 h, read-out: Duration of MES test ED50): 119 mg/kg
ED50 ([5]; Mus musculus, po, read-out: MES test (po) ED50): 13 mg/kg
efficacy duration time (MES) ([5]; mice, oral): at least 12 hours
ED50 ([6]; 0.5 h): 5.9 mg/kg
ED50 ([6]; 1 h): 3.3 mg/kg
ED50 ([6]; 2 h): 1.4 mg/kg
ED50 ([6]; 4 h): 6.9 mg/kg
ED50 ([6]; 12 h): 36.1 mg/kg
efficacy duration time (MES) ([6]; rats, oral): at least 12 hours
body weight gain vs vehicle group ([7]; 3, 10 and 50 mg/kg p.o. twice a day, days 0-30, p>0.05): gained weight similarly than vehicle group
Disease incidence ([7]; all groups (3, 10, 50 mg/kg p.o. twice a day, days 0-29)): 100%
mortality ([7]; rat, in vivo): 0.0% and 5.0%
CD68 immunoreactivity (% of white matter area) vs vehicle ([7]; spinal cord C segment, 50 mg/kg, day 30, p<0.05, 50 mg/kg): significantly smaller than in vehicle group; also recorded: reduced immunoreactivity
CD68 immunoreactivity (% of white matter area) vs vehicle ([7]; spinal cord T segment, all doses, day 30): significantly less immunoreactivity; also recorded: significantly reduced immunoreactivity
CD68 immunoreactivity (% of white matter area) vs vehicle ([7]; spinal cord combined C+T segments, all doses, day 30): significantly less immunoreactivity; also recorded: significantly reduced immunoreactivity
demyelination area (% of white matter area) vs vehicle ([7]; spinal cord, all doses (3, 10, 50 mg/kg), all segments, day 30, MBP staining): significantly less demyelination than vehicle treated animals; also recorded: significantly diminished demyelinated lesion volumes

C[C@H](OC(=O)NC1CC1)[C@@H](O)c1ccccc1Cl [Compound 18, 1-(2-chlorophenyl)-(S)-1-hydroxypropyl-(R)-2-N-cyclopropylcarbamate]
ED50 [1]: 59.2 mg/kg
ED50 [2]: 61.2 mg/kg
ED50 [3]: 87.4 mg/kg
ED50 [4]: 29.5 mg/kg
responders at 200 mg/kg ([5]; Mus musculus, po, read-out: MES test (po) Protection %): 100%
